According to patent US20220281863A1, “COMPOUNDS, COMPOSITIONS AND METHODS OF TREATING DISORDERS” (Reverie Labs, Inc., priority 2019, published 2022):

Each molecule was assayed against T1, CDK9/CycTI (Homo sapiens, UniProt P50750) (assay: In vitro kinase assay (ADP-Glo Kinase Assay Kit), CDK9/CycTI). Conditions: 30 ng CDK9/CycTI, 30 μM CDKtide, 10 μM ATP, 2 hours at room temperature; 8 to 10-point dose response (Tier2); read-out: IC50 Score.
T1 construct: purchased Carna biosciences 04-110
Format: biochemical
Procedure: In vitro kinase assay was performed in white, 384-low volume plates in 5 μl reaction volume consisting of 30 ng CDK9/CycTI (Carna biosciences #04-110), 30 μM CDKtide (Signalchem #C06-58) and 10 μM ATP made in reaction buffer (40 mM Tris, pH 7.5; 20 mM MgCl2; 0.1 mg/ml BSA; 50 μM DTT) at 1 μM & 10 μM compound concentration for Tier1 assay and 8 to 10-point dose response curve for Tier2 assay. After 2 hours of incubation at room temperature, the amounts of […] in the kinase reaction were quantified using ADP-Glo™ Kinase Assay Kit (Promega #V9102). Briefly, 5 μl of ADP-Glo™ reagent was added to stop the kinase reaction and plate was incubated for 40 minutes at room temperature. Subsequently, 10 μl of Kinase Detection Reagent was added and luminescence was recorded after 30 minutes of incubation at room temperature.
The inhibition of kinase activity was determined relative to positive control (2% DMSO) and IC50 was calculated using GraphPad prism software (four parameter-variable slope equation).

T1 sequence (P50750 whole entry): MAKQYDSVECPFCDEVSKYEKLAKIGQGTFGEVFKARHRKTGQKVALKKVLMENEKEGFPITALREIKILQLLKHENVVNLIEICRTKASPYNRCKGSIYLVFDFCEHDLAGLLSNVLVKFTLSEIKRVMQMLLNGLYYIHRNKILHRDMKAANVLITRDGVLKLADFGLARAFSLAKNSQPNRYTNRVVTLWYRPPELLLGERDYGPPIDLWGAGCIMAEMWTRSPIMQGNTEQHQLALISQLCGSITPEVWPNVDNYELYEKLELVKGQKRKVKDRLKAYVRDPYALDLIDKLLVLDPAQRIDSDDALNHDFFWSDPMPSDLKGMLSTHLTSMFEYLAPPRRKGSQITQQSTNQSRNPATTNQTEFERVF
T1 sequence (O60563 whole entry partner): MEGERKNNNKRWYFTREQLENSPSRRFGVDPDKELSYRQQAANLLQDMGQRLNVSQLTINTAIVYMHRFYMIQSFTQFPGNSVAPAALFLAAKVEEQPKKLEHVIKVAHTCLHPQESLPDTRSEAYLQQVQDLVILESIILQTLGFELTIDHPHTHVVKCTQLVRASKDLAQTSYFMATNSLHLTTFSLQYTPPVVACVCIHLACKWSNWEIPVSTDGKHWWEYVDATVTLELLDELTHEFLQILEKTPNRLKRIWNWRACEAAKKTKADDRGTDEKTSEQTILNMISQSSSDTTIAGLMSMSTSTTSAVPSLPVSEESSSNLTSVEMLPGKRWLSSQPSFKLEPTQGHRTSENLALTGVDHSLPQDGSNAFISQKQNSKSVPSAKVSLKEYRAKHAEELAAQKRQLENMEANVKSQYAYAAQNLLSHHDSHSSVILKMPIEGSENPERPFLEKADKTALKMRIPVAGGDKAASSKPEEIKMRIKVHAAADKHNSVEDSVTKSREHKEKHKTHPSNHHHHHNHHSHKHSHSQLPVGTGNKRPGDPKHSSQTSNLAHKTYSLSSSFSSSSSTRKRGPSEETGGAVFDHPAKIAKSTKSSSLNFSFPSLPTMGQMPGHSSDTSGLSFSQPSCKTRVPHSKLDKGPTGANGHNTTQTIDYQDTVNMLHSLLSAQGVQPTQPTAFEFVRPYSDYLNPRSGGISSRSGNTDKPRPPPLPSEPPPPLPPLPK

IC50 [nM]	SMILES
500 to 1000	O=C(Nc1nc2c(s1)-c1ccc(F)cc1CC2)[C@H]1CCC[C@@H](NS(=O)(=O)C2CC2)C1 [Compound 15-b, (1S,3R)-3-(cyclopropanesulfonamido)-N-(7-fluoro-4,5-dihydronaphtho[2,1-d]thiazol-2-yl)cyclohexane-1-carboxamide]
1 to 100	CC(=O)N[C@H]1CCC[C@H](C(=O)Nc2nc3ccc4cc(F)ccc4c3s2)C1 [Compound 16, (1S,3S)-3-acetamido-N-(7-fluoronaphtho[2,1-d]thiazol-2-yl)cyclohexane-1-carboxamide]
1 to 100	CC(=O)N1CCC[C@@H]1C(=O)Nc1nc2ccc3cc(Cl)ccc3c2s1 [Compound 17, (R)-1-acetyl-N-(7-chloronaphtho[2,1-d]thiazol-2-yl)pyrrolidine-2-carboxamide]
1 to 100	CC(=O)N1CCOC[C@@H]1C(=O)Nc1nc2ccc3cc(F)ccc3c2s1 [Compound 19, (R)-4-acetyl-N-(7-fluoronaphtho[2,1-d]thiazol-2-yl)morpholine-3-carboxamide]
1000 to 20000	O=C(Nc1nc2ccc3cc(F)ccc3c2s1)[C@H]1CCCCN1 [Compound 20]
1 to 100	CC(=O)N1CCCC[C@@H]1C(=O)Nc1nc2ccc3cc(F)ccc3c2s1 [Compound 21]
100 to 500	CC(=O)N(C)[C@@H]1CCC[C@H](C(=O)Nc2nc3ccc4cc(F)ccc4c3s2)C1 [Compound 22]
1 to 100	CC(C)(C)OC(=O)N1CCCC[C@@H]1C(=O)Nc1nc2ccc3cc(F)ccc3c2s1 [Compound 23]
1000 to 20000	CN(C(=O)OC(C)(C)C)[C@@H]1CCC[C@H](C(=O)Nc2nc3ccc4cc(F)ccc4c3s2)C1 [Compound 24]
500 to 1000	CC(=O)N[C@@H]1CC[C@H](C(=O)Nc2nc3ccc4cc(F)ccc4c3s2)C1 [Compound 25]
1 to 100	N[C@@H]1CC[C@H](C(=O)Nc2nc3ccc4cc(F)ccc4c3s2)C1 [Compound 26]
1 to 100	CC(=O)N1CCCC[C@H]1C(=O)Nc1nc2ccc3cc(F)ccc3c2s1 [Compound 27, (S)-1-acetyl-N-(7-fluoronaphtho[2,1-d]thiazol-2-yl)piperidine-2-carboxamide]
100 to 500	CC(=O)N1CC(C(=O)Nc2nc3ccc4cc(F)ccc4c3s2)C1 [Compound 28, 1-acetyl-N-(7-fluoronaphtho[2,1-d]thiazol-2-yl)azetidine-3-carboxamide]
1000 to 20000	CN1CC(C(=O)Nc2nc3ccc4cc(F)ccc4c3s2)C1 [Compound 29]
100 to 500	CC(C)(C)OC(=O)N[C@H]1CCC[C@@H](C(=O)Nc2nc3ccc4cc(F)ccc4c3s2)C1 [Compound 30, Tert-butyl ((1S,3R)-3-((7-fluoronaphtho[2,1-d]thiazol-2-yl)carbamoyl)cyclohexyl) carbamate]
100 to 500	O=C(Nc1nc2ccc3cc(F)ccc3c2s1)[C@H]1CCNC1 [Compound 31, (S)—N-(7-fluoronaphtho[2,1-d]thiazol-2-yl)pyrrolidine-3-carboxamide]
100 to 500	C=CC(=O)N[C@H]1CCC[C@@H](C(=O)Nc2nc3ccc4cc(F)ccc4c3s2)C1 [Compound 33, (1R,3S)-3-acrylamido-N-(7-fluoronaphtho[2,1-d]thiazol-2-yl)cyclohexane-1-carboxamide]
100 to 500	CC(C)(C)OC(=O)N[C@@H]1CC[C@H](C(=O)Nc2nc3ccc4cc(F)ccc4c3s2)C1 [Compound 34]
1000 to 20000	CC(C)(C)OC(=O)N1CC[C@@H]1C(=O)Nc1nc2ccc3cc(F)ccc3c2s1 [Compound 35, Tert-butyl (R)-2-((7-fluoronaphtho[2,1-d]thiazol-2-yl)carbamoyl)azetidine-1-carboxylate]
100 to 500	CC(=O)N1CCC[C@@H](C(=O)Nc2nc3ccc4cc(F)ccc4c3s2)C1 [Compound 38, 1-acetyl-N-(7-fluoronaphtho[2,1-d]thiazol-2-yl)piperidine-3-carboxamide]
1 to 100	CN(C)[C@@H]1CC[C@H](C(=O)Nc2nc3ccc4cc(F)ccc4c3s2)C1 [Compound 39]
1000 to 20000	CC(C)(C)OC(=O)N1CCC(C(=O)Nc2nc3ccc4cc(F)ccc4c3s2)CC1 [Compound 40]
1 to 100	C=CC(=O)N[C@@H]1CCC[C@H](C(=O)Nc2nc3ccc4cc(F)ccc4c3s2)C1 [Compound 41, (1S,3R)-3-acrylamido-N-(7-fluoronaphtho[2,1-d]thiazol-2-yl)cyclohexane-1-carboxamide]
100 to 500	O=C(Nc1nc2ccc3cc(F)ccc3c2s1)[C@H]1CCOC1 [Compound 42]
100 to 500	O=C(Nc1nc2ccc3cc(F)ccc3c2s1)C1CCNCC1 [Compound 43]

IC50 [nM]	SMILES
1 to 100	C=CC(=O)N1CCC[C@@H]1C(=O)Nc1nc2ccc3cc(F)ccc3c2s1 [Compound 44, (R)-1-acryloyl-N-(7-fluoronaphtho[2,1-d]thiazol-2-yl)pyrrolidine-2-carboxamide]
1 to 100	CC(=O)N1CCC[C@H](C(=O)Nc2nc3ccc4cc(F)ccc4c3s2)C1 [Compound 45, (S)-1-acetyl-N-(7-fluoronaphtho[2,1-d]thiazol-2-yl)piperidine-3-carboxamide]
500 to 1000	CC(C)(C)OC(=O)N[C@H]1CCC[C@H](C(=O)Nc2nc3ccc4cc(F)ccc4c3s2)C1 [Compound 46]
500 to 1000	O=C(Nc1nc2ccc3cc(F)ccc3c2s1)[C@@H]1CCCN1 [Compound 47, (S)—N-(7-fluoronaphtho[2,1-d]thiazol-2-yl)pyrrolidine-2-carboxamide]
1000 to 20000	O=C(Nc1nc2ccc3cc(F)ccc3c2s1)c1ccno1 [Compound 49, N-(7-fluoronaphtho[2,1-d]thiazol-2-yl)isoxazole-5-carboxamide]
1000 to 20000	O=C(Nc1nc2ccc3cc(F)ccc3c2s1)c1cn[nH]c1 [Compound 50, N-(7-fluoronaphtho[2,1-d]thiazol-2-yl)-1H-pyrazole-4-carboxamide]
1 to 100	CC(=O)N1CC[C@H](C(=O)Nc2nc3ccc4cc(F)ccc4c3s2)C1 [Compound 52, (S)-1-acetyl-N-(7-fluoronaphtho[2,1-d]thiazol-2-yl)pyrrolidine-3-carboxamide]
1000 to 20000	O=C(Nc1nc2ccc3cc(F)ccc3c2s1)c1c[nH]cn1 [Compound 53, N-(7-fluoronaphtho[2,1-d]thiazol-2-yl)-1H-imidazole-4-carboxamide]
1 to 100	O=C(Nc1nc2ccc3cc(F)ccc3c2s1)[C@H]1CC[C@@H](N2CCOCC2)C1 [Compound 57, (1S,3R)—N-(7-fluoronaphtho[2,1-d]thiazol-2-yl)-3-morpholinocyclopentane-1-carboxamide]
100 to 500	O=C(Nc1nc2ccc3cc(F)ccc3c2s1)C1CNC1 [Compound 58, N-(7-fluoronaphtho[2,1-d]thiazol-2-yl)azetidine-3-carboxamide]
500 to 1000	CC(C)(C)OC(=O)N1CC[C@H](C(=O)Nc2nc3ccc4cc(F)ccc4c3s2)C1 [Compound 59, Tert-butyl (S)-3-((7-fluoronaphtho[2,1-d]thiazol-2-yl)carbamoyl)pyrrolidine-1-carboxylate]
1 to 100	O=C(Nc1nc2ccc3cc(F)ccc3c2s1)[C@@H]1CCOC1 [Compound 60, (R)—N-(7-fluoronaphtho[2,1-d]thiazol-2-yl)tetrahydrofuran-3-carboxamide]
1000 to 20000	CC(C)(C)OC(=O)N1CCC[C@H](C(=O)Nc2nc3ccc4cc(F)ccc4c3s2)C1 [Compound 62, tert-butyl (S)-3-((7-fluoronaphtho[2,1-d]thiazol-2-yl)carbamoyl)piperidine-1-carboxylate]
100 to 500	N[C@H]1CCC[C@@H](C(=O)Nc2nc3ccc4cc(F)ccc4c3s2)C1 [Compound 63, (1R,3S)-3-amino-N-(7-fluoronaphtho[2,1-d]thiazol-2-yl)cyclohexane-1-carboxamide]
500 to 1000	CC(C)(C)C(=O)N1CCC(C(=O)Nc2nc3ccc4cc(F)ccc4c3s2)CC1 [Compound 64]
100 to 500	CN1CCC(C(=O)Nc2nc3ccc4cc(F)ccc4c3s2)C1 (stereo not shown) [Compound 65, N-(7-fluoronaphtho[2,1-d]thiazol-2-yl)-1-methylpyrrolidine-3-carboxamide]
500 to 1000	O=C(Nc1nc2ccc3cc(F)ccc3c2s1)[C@@H]1CCCCN1 [Compound 68]
1 to 100	CC(=O)N1CC[C@@H]1C(=O)Nc1nc2ccc3cc(F)ccc3c2s1 [Compound 69, (R)-1-acetyl-N-(7-fluoronaphtho[2,1-d]thiazol-2-yl)azetidine-2-carboxamide]
1 to 100	CC(=O)N(C)[C@@H]1CC[C@H](C(=O)Nc2nc3ccc4cc(F)ccc4c3s2)C1 [Compound 71, (1S,3R)—N-(7-fluoronaphtho[2,1-d]thiazol-2-yl)-3-(N-methylacetamido)cyclopentane-1-carboxamide]
1000 to 20000	CC(=O)N1CC[C@H]1C(=O)Nc1nc2ccc3cc(F)ccc3c2s1 [Compound 73, (S)-1-acetyl-N-(7-fluoronaphtho[2,1-d]thiazol-2-yl)azetidine-2-carboxamide]
500 to 1000	O=C(Nc1nc2ccc3cc(F)ccc3c2s1)[C@H]1CCCN1 [Compound 74]
1 to 100	O=C(CCl)N[C@@H]1CCC[C@H](C(=O)Nc2nc3ccc4cc(F)ccc4c3s2)C1 [Compound 75]
1000 to 20000	O=C(Nc1nc2ccc3cc(F)ccc3c2s1)[C@@H]1CCNC1 [Compound 77]
100 to 500	O=C(Nc1nc2ccc3cc(F)ccc3c2s1)[C@@H]1CCCO1 [Compound 78, (S)—N-(7-fluoronaphtho[2,1-d]thiazol-2-yl)tetrahydrofuran-2-carboxamide]
